Where two headings read alike, the source gives them in different places.
Columns and labels:
Type in all cases: cell-based
[1] = tested on: H358. non-small cell lung cancer line bearing KRas^G12C oncogenic mutation; test: Antiproliferative MTS assay, H358 cells; settings: compounds 1-23, 47-52 and Reference Example 1 median of experiments, 24-46 estimations and/or preliminary results, read-out: IC50 values: cell proliferation inhibition, H358
Protocol: Cell line #2: H358. non-small cell lung cancer line bearing KRas^G12C oncogenic mutation
(§1) Cell lines were cultured in DMEM or RPMI-1640 supplemented with FBS 10%. In order to assess the antiproliferative effect of compounds, cells were seeded at a density of 1.8×10^3, 6.2×10^3, 7.8×10^3, 21×10^3 and 2×10^3 cells/cm^2, respectively, in tissue culture microplates and were incubated in humidified atmosphere at 5% CO2. 24 h later, compounds dissolved in DMSO 100% were added for different final concentrations ranging between 0.1 and 50 μM for a final DMSO concentration of 0.5% and the plates were incubated for another 72 h. After incubation, proliferation was quantified using CellTiter 96® Aqueous Non-Radioactive Cell Proliferation Assay-MTS (Promega #G5421) following manufacturer instructions. Amount of 490 nm absorbance is directly proportional to the number of living cells. Absorbance was recorded with a BMG Fluostar Optima Microplate Reader and normalized to control with vehicle.

[2] = tested on: PANC-1. epithelioid carcinoma of the pancreas cell line bearing KRas^G12D oncogenic mutation; test: Antiproliferative MTS assay, PANC-1 cells; settings: compounds 1-23 and 47-52 median of experiments, 24-46 estimations and/or preliminary results, read-out: IC50 values: cell proliferation inhibition, Panc-1
Protocol: Cell line #3: PANC-1. epithelioid carcinoma of the pancreas cell line bearing KRas^G12D oncogenic mutation
as §1

[3] = tested on: RPMI. myeloma cell line bearing KRas^G12A oncogenic mutation; test: Antiproliferative MTS assay, RPMI cells; settings: 72 h, compounds 1-23 and 47-52 median of experiments, 24-46 estimations and/or preliminary results, read-out: IC50 values: cell proliferation inhibition, RPMI
Protocol: Cell line #4: RPMI. myeloma cell line bearing KRas^G12A oncogenic mutation
as §1

[4] = tested on: A549. Lung carcinoma cell line bearing KRas^G12S oncogenic mutation; test: Antiproliferative MTS assay, A549 cells; settings: compounds 1-23 and 47-52 median of experiments, 24-46 estimations and/or preliminary results, read-out: IC50 values: cell proliferation inhibition, A549
Protocol: Cell line #1: A549. Lung carcinoma cell line bearing KRas^G12S oncogenic mutation
as §1

Structure (SMILES)	IC50 ([1]; Homo sapiens, NCI-H358, 72 h) [nM]	IC50 ([2]; Homo sapiens, PANC-1, 72 h) [nM]	IC50 [3] [nM]	IC50 ([4]; Homo sapiens, A549, 72 h) [nM]	IC50 ([1]; 72 h) [nM]	IC50 ([2]; 72 h) [nM]	IC50 ([4]; 72 h) [nM]
CCNC(=O)N1CCc2cc(OC)c(OCCc3ccc(OC)c(N)c3)cc2C1c1ccc(F)cc1C (stereo not shown) [Compound 12]	200	100	100	900			
CCNC(=O)N1CCc2cc(OC)c(OCCc3ccc(N)c(OC)c3)cc2C1c1ccc(Cl)cc1C (stereo not shown) [Compound 14]			400	1600	700	500	
COc1ccc(CCOc2cc3c(cc2OC)CCN(C(=O)NCc2cocn2)C3c2ccc(C(F)(F)F)cc2C)cc1N (stereo not shown) [Compound 15]	300	300	100	1000			
COc1ccc(C2c3cc(OCCc4ccc(OC)c(N)c4)c(OC)cc3CCN2C(=O)NCc2cocn2)c(C)c1 (stereo not shown) [Compound 16]	300	200	100	1000			
COc1ccc(CCOc2cc3c(cc2OC)CCN(C(=O)NCc2cocn2)C3c2ccc(F)cc2C)cc1N (stereo not shown) [Compound 17]	500	400	200	1000			
COc1ccc(CCOc2cc3c(cc2OC)CCN(C(=O)NCc2cocn2)C3c2ccc(Cl)cc2C)cc1N (stereo not shown) [Compound 18]	300	200	100	1000			
COc1ccc(CCOc2cc3c(cc2OC)CCN(C(=O)NCc2ccon2)C3c2ccc(C)cc2C)cc1N (stereo not shown) [Compound 19]	500	300	500	1500			
COc1ccc(CCOc2cc3c(cc2OC)CCN(C(=O)NCc2ccon2)C3c2ccc(C(F)(F)F)cc2C)cc1N (stereo not shown) [Compound 20]	400	400	200	1000			
COc1ccc(C2c3cc(OCCc4ccc(OC)c(N)c4)c(OC)cc3CCN2C(=O)NCc2ccon2)c(C)c1 (stereo not shown) [Compound 21]	200	200	100	900			
COc1ccc(CCOc2cc3c(cc2OC)CCN(C(=O)NCc2ccon2)C3c2ccc(F)cc2C)cc1N (stereo not shown) [Compound 22]	700	600	500	> 2000			
COc1ccc(CCOc2cc3c(cc2OC)CCN(C(=O)NCc2ccon2)C3c2ccc(Cl)cc2C)cc1N (stereo not shown) [Compound 23]	100	100	100	700			
COc1ccc(CCOc2cc3c(cc2OC)CCN(C(=O)NCC(F)(F)F)C3c2ccc(C)cc2C)cc1N (stereo not shown) [Compound 24]	200	200	100	1000			
COc1ccc(CCOc2cc3c(cc2OC)CCN(C(=O)NCC(F)(F)F)C3c2ccc(C(F)(F)F)cc2C)cc1N (stereo not shown) [Compound 25]	600	500	300	> 2000			
COc1ccc(C2c3cc(OCCc4ccc(OC)c(N)c4)c(OC)cc3CCN2C(=O)NCC(F)(F)F)c(C)c1 (stereo not shown) [Compound 26]	400	500	200	1000			
COc1ccc(CCOc2cc3c(cc2OC)CCN(C(=O)NCC(F)(F)F)C3c2ccc(F)cc2C)cc1N (stereo not shown) [Compound 27]	300	300	100	900			
COc1ccc(CCOc2cc3c(cc2OC)CCN(C(=O)NCC(F)(F)F)C3c2ccc(Cl)cc2C)cc1N (stereo not shown) [Compound 28]	300	200	100	800			
CCNC(=O)N1CCc2cc(OC)c(OCCc3ccc(N)c(OC)c3)cc2C1c1ccc(C(F)(F)F)cc1C (stereo not shown) [Compound 29]	500	400	200	1500			

Structure (SMILES)	IC50 ([1]; Homo sapiens, NCI-H358, 72 h) [nM]	IC50 ([2]; Homo sapiens, PANC-1, 72 h) [nM]	IC50 [3] [nM]	IC50 ([4]; Homo sapiens, A549, 72 h) [nM]	IC50 ([1]; 72 h) [nM]	IC50 ([2]; 72 h) [nM]	IC50 ([4]; 72 h) [nM]
CCNC(=O)N1CCc2cc(OC)c(OCCc3ccc(N)c(OC)c3)cc2C1c1ccc(OC)cc1C (stereo not shown) [Compound 30]	400	500	300	1000			
CCNC(=O)N1CCc2cc(OC)c(OCCc3ccc(N)c(OC)c3)cc2C1c1ccc(F)cc1C (stereo not shown) [Compound 31]	500	400	100	> 2000			
CCNC(=O)N1CCc2cc(OC)c(OCCc3ccc(N)c(OC)c3)cc2C1c1ccc(Cl)cc1C (stereo not shown) [Compound 32]			100		300	200	1000
COc1cc(CCOc2cc3c(cc2OC)CCN(C(=O)NCc2cocn2)C3c2ccc(C)cc2C)ccc1N (stereo not shown) [Compound 33]	800	600	700	> 2000			
COc1cc(CCOc2cc3c(cc2OC)CCN(C(=O)NCc2cocn2)C3c2ccc(C(F)(F)F)cc2C)ccc1N (stereo not shown) [Compound 34]	500	400	100	1200			
COc1ccc(C2c3cc(OCCc4ccc(N)c(OC)c4)c(OC)cc3CCN2C(=O)NCc2cocn2)c(C)c1 (stereo not shown) [Compound 35]	400	400	300	1000			
COc1cc(CCOc2cc3c(cc2OC)CCN(C(=O)NCc2cocn2)C3c2ccc(F)cc2C)ccc1N (stereo not shown) [Compound 36]	900	700	500	1700			
COc1cc(CCOc2cc3c(cc2OC)CCN(C(=O)NCc2cocn2)C3c2ccc(Cl)cc2C)ccc1N (stereo not shown) [Compound 37]	400	400	100	1500			
COc1cc(CCOc2cc3c(cc2OC)CCN(C(=O)NCc2ccon2)C3c2ccc(C)cc2C)ccc1N (stereo not shown) [Compound 38]	500	400	200	1500			
COc1cc(CCOc2cc3c(cc2OC)CCN(C(=O)NCc2ccon2)C3c2ccc(C(F)(F)F)cc2C)ccc1N (stereo not shown) [Compound 39]	600	600	300	> 2000			
COc1ccc(C2c3cc(OCCc4ccc(N)c(OC)c4)c(OC)cc3CCN2C(=O)NCc2ccon2)c(C)c1 (stereo not shown) [Compound 40]	300	300	100	1000			
COc1cc(CCOc2cc3c(cc2OC)CCN(C(=O)NCc2ccon2)C3c2ccc(F)cc2C)ccc1N (stereo not shown) [Compound 41]	900	700	900	> 2000			
COc1cc(CCOc2cc3c(cc2OC)CCN(C(=O)NCc2ccon2)C3c2ccc(Cl)cc2C)ccc1N (stereo not shown) [Compound 42]	300	300	100	1000			
COc1cc(CCOc2cc3c(cc2OC)CCN(C(=O)NCC(F)(F)F)C3c2ccc(C)cc2C)ccc1N (stereo not shown) [Compound 43]	300	200	100	1000			
COc1cc(CCOc2cc3c(cc2OC)CCN(C(=O)NCC(F)(F)F)C3c2ccc(C(F)(F)F)cc2C)ccc1N (stereo not shown) [Compound 44]	800	500	300	> 2000			
COc1ccc(C2c3cc(OCCc4ccc(N)c(OC)c4)c(OC)cc3CCN2C(=O)NCC(F)(F)F)c(C)c1 (stereo not shown) [Compound 45]	600	300	200	1000			
CCNC(=O)N1CCc2cc(OC)c(OCCc3ccc(OC)c(N)c3)cc2C1c1ccc(C(=O)OC)cc1C (stereo not shown) [Reference Example 1, reference compound]	300						

Source: US20220380357A1, “TETRAHYDROISOQUINOLINE COMPOUNDS” (ALLINKY BIOPHARMA, priority 2019, published 2022)
